Test results: PMC4199632, “Exploring the Anti-Cancer Activity of Novel Thiosemicarbazones Generated through the Combination of Retro-Fragments: Dissection of Critical Structure-Activity Relationships” (PLoS ONE, 2014)
Read-outs that look alike come from different tables or passages of the source.

Key:
[1] = test system: SK-N-MC neuroepithelioma cells; test: Proliferation assay (MTT, 72 h); format: cell-based; conditions: Homo sapiens, 72 h incubation, mean ±SD (3 experiments)
Method in brief: (§1)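 Cells seeded 24 h before treatment, then exposed at 37 °C for 72 h (SK-N-MC, Raji, HeLa) or 96 h (HCT116, NHDF); final DMSO <0.05%. Read-outs: MTT at 570 nm (SK-N-MC, Raji), crystal violet at 595 nm (HeLa), MTS at 490 nm (HCT116, NHDF); IC50 is 50% absorbance versus untreated control, triplicates repeated three times.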

[2] = test system: Raji Burkitt's lymphoma cells; test: Proliferation assay (MTT, 72 h); format: cell-based; conditions: Homo sapiens, 72 h incubation, mean ±SD (3 experiments)
Method in brief: as §1

[3] = test system: normal human dermal fibroblast (NHDF) cells; test: Proliferation assay (MTS, 96 h), normal mortal cells; format: cell-based; conditions: 96 h incubation, mean ±SD (3 experiments)
Method in brief: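 HCT116 p53+/+, HCT116 p53−/− and NHDF cells were seeded 24 h before a 96 h compound exposure at 37 °C, with final DMSO <0.05%. Viability was read by MTS absorbance at 490 nm after 1 h; IC50 was the concentration reducing absorbance to 50% of untreated control.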

[4] = test system: HCT116 p53+/+, HCT116 p53−/−, Raji, HeLa, SK-N-MC and NHDF cells; test: Proliferation assay, ranges stated over several cell-types; format: cell-based, human; conditions: for IC50: Homo sapiens; for Therapeutic index, NHDF relative to HCT116 cells: range over HCT116 p53+/+ and p53−/− and over the compounds named
Procedure: The human cancer cell types (neuroepithelioma (SK-N-MC), colon cancer (HCT116 with wild-type p53 (p53^+/+)), Burkitt's lymphoma (Raji) and cervical carcinoma (HeLa)) cells and normal human dermal fibroblasts (NHDF) were obtained from the American Type Culture Collection (ATCC, Manassas, VA, USA). HCT116 null p53 (p53^−/−) cells were obtained from the Maria Sklodowska-Curie Memorial Cancer Center and Institute of Oncology, Poland.
The SK-N-MC cells were cultured in minimum essential medium (MEM; Life Technologies, Grand Island, New York, USA) containing 10% (v/v) fetal bovine serum (FBS; Life Technologies), 1 mM sodium pyruvate (Life Technologies), 1% (v/v) non-essential amino acids (Life Technologies), 2 mM L-glutamine (Life Technologies), 100 U/mL penicillin (Life Technologies), 100 µg/mL streptomycin (Life Technologies) and 0.28 µg/mL fungizone (Bristol Myers Squibb Pharmaceuticals, Montreal, Canada). The HCT116 and NHDF cells were grown in Dulbecco's modified Eagle's medium (DMEM; Sigma-Aldrich) supplemented with 12% (v/v) heat-inactivated FBS (HCT116; Life Technologies) or 15% (v/v) FBS (NHDF; Life Technologies), 100 µg/mL of gentamicin (Polfa Warszawa S.A., Warsaw, Poland), 100 µg/mL of streptomycin (Polfa) and 100 U/mL of penicillin (Polfa). The Raji and HeLa cells were cultured in Roswell Park Memorial Institute medium (RPMI-1640; Sigma-Aldrich) with the addition of 10% (v/v) heat-inactivated FBS (Life Technologies) and the supplements described for SK-N-MC cells above. All cell lines were cultured under standard conditions at 37°C in a humidified atmosphere at 5% CO2 and were subcultured every 3–4 days as required.
The cells were seeded in 96-well plates (SK-N-MC: 1.5×10^4 cells/well; HeLa: 5.0×10^3 cells/well; Raji: 3.0×10^3 cells/well; HCT116: 3.5×10^3 cells/well; NHDF: 3.0×10^3 cells/well) 24 h prior to the addition of the novel compounds. The assays were performed using a 72 h (SK-N-MC, Raji, HeLa) or 96 h (HCT 116, NHDF) incubation period with the agents at 37°C. […] Additionally, DFO and Dp44mT were included as positive controls in all experiments as their activity is well characterized, [42], [50].
Chelator stock solutions were prepared in DMSO and diluted in media so that the final [DMSO] <0.05%. The results were expressed as a percentage of the control and the resulting IC50 values were calculated using GraphPad Prism 5 (GraphPad Software, Inc., La Jolla, CA, USA). The IC50 was defined as the concentration necessary to reduce the absorbance to 50% of the untreated control. Each individual compound was tested in triplicate in a single experiment, with each experiment being repeated three times. After incubation of HCT 116 and NHDF cells with the tested compounds, 20 µL of the CellTiter 96 Aqueous One Solution - MTS (Promega, Madison, WI, USA) solution was added to each well (with 100 µL of DMEM without phenol red) and incubated for 1 h/37°C. The optical density of the samples was analyzed at 490 nm.
MTT (3-[4,5-dimethylthiazol-2-yl]-2,5-diphenyltetrazolium bromide) was used to evaluate the anti-proliferative effects of the chelators in SK-N-MC and Raji cells. Following incubation with the investigated compounds, 10 µL of MTT (5 mg/mL in PBS; Sigma-Aldrich) was added to each well. After a 2 h (SK-N-MC) or 4 h (Raji) incubation, the plates were centrifuged, and the cells were lysed with 100 µL of 10% SDS-50% isobutanol in 0.01 M HCl (SK-N-MC) or DMSO (Raji). The absorbance was measured at 570 nm. The anti-proliferative effects of these novel agents on HeLa cells were estimated using crystal violet staining (0.5% crystal violet solution for 10 min). Finally, the wells were rinsed with water and the cells were lysed with 2% SDS. The optical density of the samples was analyzed at 595 nm.

[5] = test system: murine M109 lung carcinoma; set-up: method as in PMID 15150082; conditions: five day treatment, 0.4 mg/kg, mice; cited from earlier work
[6] = set-up: method as in PMID 17003122; conditions: high, non-optimal doses; cited from earlier work
[7] = HCT-116, range over HCT116 p53+/+ and p53−/− cells and over the compounds named, read-out: IC50 range in HCT116 cells

Structure (SMILES) | IC50 [1] [nM] | IC50 [2] [nM] | IC50 ([3]; Homo sapiens, NHDF, 96 h) [nM] | IC50 [4, 7] [nM] | Therapeutic index, NHDF relative to HCT116 cells [4] | IC50 [3] [nM] | IC50 ([4]; range over the cancer cell-types of Table 1, read-out: IC50 range, anti-cancer activity) [nM] | Growth of murine M109 lung carcinoma (% of the control) [5] [%] | Toxicity finding [6]
S=C(NN=C(c1ccccn1)c1ccccn1)N1CCN(c2cnccn2)CC1 [1e] | 70 ± 50 | 40 ± 20 | 14 ± 3 | – | – | – | – | – | –
CCN1CCN(C(=S)N/N=C/c2ccc3ccccc3n2)CC1 [2a] | 2540 ± 860 | 60 ± 20 | 9620 ± 1800 | – | – | – | – | – | –
S=C(N/N=C/c1ccc2ccccc2n1)N1CCN(c2ccccc2)CC1 [2b] | 330 ± 20 | 40 ± 10 | – | 0.8 to 90 | 0.4–0.8 | 33 ± 7 | – | – | –
CN(C(=S)N/N=C/c1ccc2ccccc2n1)C1CCCCC1 [2f] | 820 ± 190 | 810 ± 100 | 15 ± 5 | 0.8 to 90 | 0.4–0.8 | – | – | – | –
CN(C(=S)N/N=C/c1cnc2ccccc2n1)C1CCCCC1 [5f] | 2040 ± 340 | 720 ± 290 | 500 ± 210 | – | – | – | – | – | –
CN(C(=S)N/N=C/c1ccccc1O)C1CCCCC1 [6f] | > 6250 | 690 ± 510 | > 25000 | – | – | – | – | – | –
CC(=O)N(O)CCCCCNC(=O)CCC(=O)N(O)CCCCCNC(=O)CCC(=O)N(O)CCCCCN [DFO, desferrioxamine, reference compound] | 15100 ± 5200 | 4740 ± 1800 | > 25000 | – | – | – | – | – | –
CN(C)C(=S)NN=C(c1ccccn1)c1ccccn1 [Dp44mT, di-2-pyridylketone 4,4-dimethyl-3-thiosemicarbazone, reference compound] | 12 ± 1 | 7 ± 1 | 15400 ± 5060 | – | – | – | 2 to 40 | 47 | cardiac fibrosis
